{"source": "paper PMC10672842", "about": "“Anti-Trypanosoma cruzi Activity, Mutagenicity, Hepatocytotoxicity and Nitroreductase Enzyme Evaluation of 3-Nitrotriazole, 2-Nitroimidazole and Triazole Derivatives” (Molecules, 2023)", "key": {"[1]": {"assay": "In vitro cytotoxicity of L929 cells (AlamarBlue)", "type": "cell-based, mice", "details": "mouse, four days", "procedure": "For this bioassay, 4000 mammalian cells in 200 µL of RPMI-1640 medium (pH 7.2–7.4) (Gibco BRL) plus 10% fetal bovine serum and 2 mM glutamine were added to each well of a 96-well microtiter plate, which was incubated for three days at 37 °C. […] After this period, 20 µL of AlamarBlue^TM was added to each well, and the plate was incubated for another 4–6 h. Then, the absorbance was measured at 570 nm. Controls with cells not treated and treated with benznidazole were performed in parallel, and triplicates were performed on the same plate. The results are expressed as the percent difference in the reduction between treated (CT) and untreated cells (UT) using the following equation:(1) 117.216Abs570 TC−80.586(Abs600 TC)/117.216Abs570 UT−80.586(Abs600 UT) × 100"}, "[2]": {"assay": "in vitro", "type": "cell-based", "details": "human", "procedure": "(§1) The Lactate Desidrogenase (LDH) Cytotoxicity Detection Kit^PLUS and the Cell Proliferation Reagent WST-1 assays were performed according to the manufacturer’s protocols. The human hepatocellular carcinoma cell line HepG2 was cultured in T25/175 cm^2 flasks with Dulbecco’s modified Eagle’s medium (DMEM, Gibco BRL) supplemented with 10% fetal bovine serum, 3.7 g/L sodium bicarbonate and 100 µg/mL penicillin–streptomycin under standard conditions (37 ± 1 °C, 95% relative humidity and 5% CO2). Cells were split using trypsin-EDTA (0.05%) with phenol red solution (Gibco BRL) and seeded in a 96-well flat-bottomed plate at a density of 1 × 10^4 cells/well. After overnight incubation, the cells were washed with 1X PBS, and the medium was replaced with different compound dilutions (0–5000 µM) in fresh medium (100 µL) followed by 24 h of incubation. DMSO 1% was used as the negative control, and Triton X-100 4% was used as the positive control. For the LDH assay, after treatment, 50 µL of supernatant from each well was transferred to a 96-well flat-bottomed plate, and 50 µL of freshly prepared reaction mixture was added to each well. After 10 min of incubation in the dark at room temperature, 25 µL of stop solution was added to each well, and the absorbance was measured at 492 nm on a microplate reader (Polaris, Celer, MG, Brazil). For the WST-1 assay, after exposure, the supernatant was replaced by 100 µL of WST-1 2% in fresh medium and incubated for 3 h in the dark under standard conditions. The absorbance was measured at 440 nm. […] For cytotoxicity assays, significant differences between the groups were analyzed by one-way ANOVA and Tukey’s post hoc tests (p < 0.01)."}, "[3]": {"assay": "in vitro", "type": "cell-based", "details": "human", "procedure": "as §1", "remark": "listed apart in the source"}, "[4]": {"system": "S. typhimurium TA100", "procedure": "The compounds were tested in a reverse mutation assay preincubation protocol in the absence and presence of metabolic activation following standard protocols previously proposed by Maron and Ames. The histidine-dependent (his^−) strains TA98 and TA100 of Salmonella typhimurium were inoculated in 10 mL of Oxoid nutrient broth No. 2 containing 25 µg/mL ampicillin and incubated overnight (15–18 h) at 37 ± 1 °C on an orbital shaker (CT-712, Cientec, Belo Horizonte, MG, Brazil) at 150 rpm, obtaining a concentration of 1–2 × 10^9 cells/mL, confirmed by titration in nutrient agar plates. Briefly, 100 µL of stationary growth cultures of each strain were preincubated for 20 min on an orbital shaker (150 rpm) at 37 ± 1 °C, with 500 µL of 0.2 M phosphate buffer pH 7.4, or 500 µL of S9 mix 4% (Molecular Toxicology, Baltimore, MD, USA), and 100 µL of compound dilutions (0–5000 µM) or controls. DMSO 1% was used as a negative control. […] After incubation, 2 mL of top agar (0.7% agar, 0.5% NaCl, 0.05 mM L-histidine and D-biotin) at 45 ± 3 °C was added and gently mixed. The final mixture was poured on glucose minimal agar plates (1.5% agar, 10 g/L MgSO4·7H2O; 100 g/L of C6H8O7·H2O; 500 g/L K2HPO4; 175 g/L Na(NH4)HPO4·4H2O, 2% glucose) and incubated for 72 h at 37 ± 1 °C. The results were expressed as the mean of revertant colonies (His^+) per plate, standard deviation (SD) and mutagenicity induction fold (IF), calculated as the ratio between the number of colonies in the test group and the number of colonies in the negative control group. Mutagenic potency was calculated as the slope of the linear portion of the concentration–response function and expressed as revertants/µM. All assays were performed in triplicate and repeated at least two times. Statistical analyses were carried out in GraphPad Prism software (version 5.00, GraphPad Software, Boston, MA, USA)."}, "[5]": {"system": "S. typhimurium TA1535"}}, "note": "Like-named read-outs stand apart in the source and are kept apart here."}
{"smiles": "O=[N+]([O-])c1ncn(CC(O)c2ccc(F)cc2F)n1", "note": "(centres unmarked) [Compound 8, 1-(2,4-Difluorophenyl)-2-(3-nitro-1H-1,2,4-triazol-1-yl)ethanol]", "values": [{"measurement": "CC50 at 4 days", "setting": "[1]", "value": "1200 ± 0.01", "unit": "µM"}, {"measurement": "CC50 at 24 h", "setting": "[2]", "value": "> 500", "unit": "µM"}, {"measurement": "CC50 at 48 h", "setting": "[2]", "value": "426 ± 66", "unit": "µM"}, {"measurement": "CC50 at 24 h", "setting": "[3]", "value": "> 500", "unit": "µM"}, {"measurement": "CC50 at 48 h", "setting": "[3]", "value": "> 500", "unit": "µM"}, {"measurement": "IF (induction factor)", "setting": "[4]; TA100, +S9, 0.5 µM", "value": 1.2}, {"measurement": "revertant His+ colonies, mean ± SD", "setting": "[4]; TA100, +S9, 0.5 µM", "value": "129 ± 21"}, {"measurement": "IF (induction factor)", "setting": "[4]; TA100, +S9, 5 µM", "value": 1.2}, {"measurement": "revertant His+ colonies, mean ± SD", "setting": "[4]; TA100, +S9, 5 µM", "value": "128 ± 6"}, {"measurement": "IF (induction factor)", "setting": "[4]; TA100, +S9, 50 µM", "value": 1.4}, {"measurement": "revertant His+ colonies, mean ± SD", "setting": "[4]; TA100, +S9, 50 µM", "value": "150 ± 14"}, {"measurement": "IF (induction factor)", "setting": "[4]; TA100, +S9, 500 µM", "value": 1.4}, {"measurement": "revertant His+ colonies, mean ± SD", "setting": "[4]; TA100, +S9, 500 µM", "value": "145 ± 8"}, {"measurement": "IF (induction factor)", "setting": "[4]; TA100, +S9, 5000 µM", "value": 1.7}, {"measurement": "revertant His+ colonies, mean ± SD", "setting": "[4]; TA100, +S9, 5000 µM", "value": "183 ± 9"}, {"measurement": "Mutagenicity in the Ames test (verdict)", "setting": "[4]; TA100, absence or presence of metabolic activation", "value": "not mutagenic"}, {"measurement": "IF (induction factor)", "setting": "[4]; TA100, −S9, 0.5 µM", "value": 1.1}, {"measurement": "revertant His+ colonies, mean ± SD", "setting": "[4]; TA100, −S9, 0.5 µM", "value": "77 ± 5"}, {"measurement": "IF (induction factor)", "setting": "[4]; TA100, −S9, 5 µM", "value": 1.1}, {"measurement": "revertant His+ colonies, mean ± SD", "setting": "[4]; TA100, −S9, 5 µM", "value": "77 ± 15"}, {"measurement": "IF (induction factor)", "setting": "[4]; TA100, −S9, 50 µM", "value": 1.1}, {"measurement": "revertant His+ colonies, mean ± SD", "setting": "[4]; TA100, −S9, 50 µM", "value": "77 ± 13"}, {"measurement": "IF (induction factor)", "setting": "[4]; TA100, −S9, 500 µM", "value": 1.3}, {"measurement": "revertant His+ colonies, mean ± SD", "setting": "[4]; TA100, −S9, 500 µM", "value": "91 ± 8"}, {"measurement": "IF (induction factor)", "setting": "[4]; TA100, −S9, 5000 µM", "value": 1.5}, {"measurement": "revertant His+ colonies, mean ± SD", "setting": "[4]; TA100, −S9, 5000 µM", "value": "108 ± 10"}, {"measurement": "IF (induction factor)", "setting": "[5]; TA1535, +S9, 0.5 µM", "value": 1.0}, {"measurement": "revertant His+ colonies, mean ± SD", "setting": "[5]; TA1535, +S9, 0.5 µM", "value": "11 ± 1"}, {"measurement": "IF (induction factor)", "setting": "[5]; TA1535, +S9, 5 µM", "value": 1.1}, {"measurement": "revertant His+ colonies, mean ± SD", "setting": "[5]; TA1535, +S9, 5 µM", "value": "12 ± 4"}, {"measurement": "IF (induction factor)", "setting": "[5]; TA1535, +S9, 50 µM", "value": 1.3}, {"measurement": "revertant His+ colonies, mean ± SD", "setting": "[5]; TA1535, +S9, 50 µM", "value": "14 ± 4"}, {"measurement": "IF (induction factor)", "setting": "[5]; TA1535, +S9, 500 µM", "value": 1.4}, {"measurement": "revertant His+ colonies, mean ± SD", "setting": "[5]; TA1535, +S9, 500 µM", "value": "15 ± 5"}, {"measurement": "IF (induction factor)", "setting": "[5]; TA1535, +S9, 5000 µM", "value": 1.4}, {"measurement": "revertant His+ colonies, mean ± SD", "setting": "[5]; TA1535, +S9, 5000 µM", "value": "15 ± 3"}, {"measurement": "Mutagenicity in the Ames test (verdict)", "setting": "[5]; TA1535, absence or presence of metabolic activation", "value": "not mutagenic"}, {"measurement": "IF (induction factor)", "setting": "[5]; TA1535, −S9, 0.5 µM", "value": 1.0}, {"measurement": "revertant His+ colonies, mean ± SD", "setting": "[5]; TA1535, −S9, 0.5 µM", "value": "21 ± 2"}, {"measurement": "IF (induction factor)", "setting": "[5]; TA1535, −S9, 5 µM", "value": 1.0}, {"measurement": "revertant His+ colonies, mean ± SD", "setting": "[5]; TA1535, −S9, 5 µM", "value": "26 ± 3"}, {"measurement": "IF (induction factor)", "setting": "[5]; TA1535, −S9, 50 µM", "value": 1.0}, {"measurement": "revertant His+ colonies, mean ± SD", "setting": "[5]; TA1535, −S9, 50 µM", "value": "23 ± 6"}, {"measurement": "revertant His+ colonies, mean ± SD", "setting": "[5]; TA1535, −S9, 500 µM", "value": "Cytotoxic"}]}
